According to PubChem BioAssay AID1963871 (Molecular Pharmacology Branch, DTP, NCI, 2024):

Test system: KRAS-mutant PDC multicell tumor spheroid viability
Experiment: Anticancer human tumor 521955-158-R2-J5-PDC patient-derived pancreatic carcinoma cell line growth inhibition [KRAS2]
Settings: for viability, T/C: stronger effect = lower value
Text: Multicellular complex tumor spheroid response to RAS pathway inhibitors in combination with a targeted agents in patient-derived cell lines with oncogenic KRAS variants from multiple cancer types
A high-throughput screen of multi-cell type tumor spheroids was designed to identify active combinations of targeted small molecules and KRAS pathway inhibitors. Complex spheroids include a stromal component modeled by human endothelial cells (HUVEC) and fibroblasts modeled by human mesenchymal stem cells (MSCs). The concentration ranges selected for each drug and investigational agent were based upon clinically achievable concentrations if the clinical Cmax of the agent was known.
Compounds. The drugs and investigational agents: BI-3406 (NSC825286), BAY-293 (NSC824723), batoprotafib (TNO155; NSC825523), sotorasib (AMG 510; NSC818433), MRTX1257 (NSC819558), elimusertib (BAY 1895344; NSC800525), molibresib (GSK525762; NSC774829), temuterkib (LY3214996; NSC803410), venetoclax (NSC766270), alisertib (NSC759677), olaparib (NSC753686), talazoparib (NSC767125), erdafitinib (NSC781556), ipatasertib (NSC767898), cabozantinib (NSC761068), nintedanib (NSC756659), abemaciclib (NSC768073), docetaxel (NSC628503), trametinib (NSC758246), and sapanisertib (NSC764658) were obtained from the National Cancer Institute (NCI) Developmental Therapeutics Program Chemical Repository. The FDA-approved anticancer drug set is available from the Developmental Therapeutics Program. […] The stock solutions were prepared in dimethyl sulfoxide (DMSO, Sigma-Aldrich, St. Louis, MO, cat. D2650) at 800-fold the tested concentration and stored at -70 degrees C prior to their use. All drugs and investigational agents were tested over a range starting from a high concentration at or near the clinical Cmax and decreasing in half-log increments. If the clinical Cmax for an agent had not been determined, the highest concentration tested was 10 microM.
Cell Culture. All cells were maintained in an incubator at 37 degrees C and 5% CO2 with 95% humidity. The PDC lines were cultured according to standard operating procedures established by the NCI PDMR (https://pdmr.cancer.gov/sops/default.htm). Briefly, all PDCs were thawed and cultured in Matrigel-coated flasks prepared with a working solution of 1X Ham's F-12 nutrient mix, without supplementation (Invitrogen, Waltham, MA, cat. 11765054), 100 U/mL penicillin-streptomycin (Invitrogen, cat. 15140122), and 2.5% Matrigel (Corning Inc., Corning, NY, cat. 354248) for the first three passages. All PDCs were cultured in complete DMEM/F-12 media containing advanced DMEM/F-12 (Invitrogen, cat. 12634028), 4.9% defined fetal bovine serum, heat inactivated (HyClone Laboratories Inc., Logan, UT, cat. SH30070.03HI), 389 ng/mL hydrocortisone (Sigma-Aldrich, cat. H4001), 9.7 ng/mL human EGF recombinant protein (Invitrogen, cat. PHG0313), 23.4 microg/mL adenine (Sigma-Aldrich, cat. A2786), 97.3 U/mL penicillin-streptomycin (Invitrogen, cat. 15140122), 1.9 mM L-glutamine (Invitrogen, cat. 25030081), and 9.7 microM Y-27632 dihydrochloride (Tocris Bioscience, Bristol, United Kingdom, cat. 1254). The PDCs were cultured in complete DMEM/F12 media without 9.7 microM Y-27632 dihydrochloride for at least two passages prior to the screen. The established cell line HOP-62 was cultured in RPMI 1640 medium, HEPES (Invitrogen, cat. 22400105) with 10% defined fetal bovine serum (HyClone Laboratories Inc., cat. SH30070.03) and 2 mM L-glutamine (Invitrogen, cat. 25030081). The pooled donor HUVEC were cultured in endothelial cell growth medium 2 (PromoCell, Heidelberg, Germany, cat. C-22011) and the hMSC were cultured in mesenchymal stem cell growth medium 2 (PromoCell, cat. C-28009). For all experiments, HUVEC and hMSC were used at passages </=5, while the malignant cell lines were used at passages </=15. […]
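Further: viability read after seven days of drug exposure.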

SMILES: CCN1CCN(Cc2ccc(Nc3ncc(F)c(-c4cc(F)c5nc(C)n(C(C)C)c5c4)n3)nc2)CC1
- viability, T/C (compound 0.00316 µM): 99% [middle of 5 runs]
- viability, T/C (compound 0.01 µM): 98.1% [middle of 5 runs]
- viability, T/C (compound 0.0316 µM): 87.7% [middle of 5 runs]
- viability, T/C (compound 0.1 µM): 90.7% [middle of 5 runs]
- viability, T/C (compound 0.316 µM): 99.1% [middle of 5 runs]
- viability, T/C (compound 1 µM): 87.5% [middle of 5 runs]
- IC50 (curve of compound): > 1000 nM

SMILES: CN(C)C/C=C/C(=O)Nc1cc2c(Nc3ccc(F)c(Cl)c3)ncnc2cc1O[C@H]1CCOC1 + C=CC(=O)N1CCN(c2nc(=O)n(-c3c(C)ccnc3C(C)C)c3nc(-c4c(O)cccc4F)c(F)cc23)C(C)C1
- IC50 (curve of first compound, second compound 0.1 µM): > 100 nM
- IC50 (curve of first compound, second compound 0.316 µM): > 100 nM
- IC50 (curve of first compound, second compound 1 µM): > 100 nM
- IC50 (curve of first compound, second compound 3.16 µM): > 100 nM
- IC50 (curve of first compound, second compound 10 µM): 75.8 nM
- viability, T/C (second compound 0.1 µM, first compound 0.000316 µM): 124%
- viability, T/C (second compound 0.1 µM, first compound 0.001 µM): 118%
- viability, T/C (second compound 0.1 µM, first compound 0.00316 µM): 93.8%
- viability, T/C (second compound 0.1 µM, first compound 0.01 µM): 97.2%
- viability, T/C (second compound 0.1 µM, first compound 0.0316 µM): 98.6%
- viability, T/C (second compound 0.1 µM, first compound 0.1 µM): 80.5%
- viability, T/C (second compound 0.316 µM, first compound 0.000316 µM): 133%
- viability, T/C (second compound 0.316 µM, first compound 0.001 µM): 134%
- viability, T/C (second compound 0.316 µM, first compound 0.00316 µM): 103%
- viability, T/C (second compound 0.316 µM, first compound 0.01 µM): 88.5%
- viability, T/C (second compound 0.316 µM, first compound 0.0316 µM): 90.6%
- viability, T/C (second compound 0.316 µM, first compound 0.1 µM): 76.7%
- viability, T/C (second compound 1 µM, first compound 0.000316 µM): 120%
- viability, T/C (second compound 1 µM, first compound 0.001 µM): 120%
- viability, T/C (second compound 1 µM, first compound 0.00316 µM): 99.8%
- viability, T/C (second compound 1 µM, first compound 0.01 µM): 84.9%
- viability, T/C (second compound 1 µM, first compound 0.0316 µM): 85.2%
- viability, T/C (second compound 1 µM, first compound 0.1 µM): 71%
- viability, T/C (second compound 3.16 µM, first compound 0.000316 µM): 99.4%
- viability, T/C (second compound 3.16 µM, first compound 0.001 µM): 104%
- viability, T/C (second compound 3.16 µM, first compound 0.00316 µM): 89.5%
- viability, T/C (second compound 3.16 µM, first compound 0.01 µM): 77%
- viability, T/C (second compound 3.16 µM, first compound 0.0316 µM): 59.4%
- viability, T/C (second compound 3.16 µM, first compound 0.1 µM): 69.2%
- viability, T/C (second compound 10 µM, first compound 0.000316 µM): 67.4%
- viability, T/C (second compound 10 µM, first compound 0.001 µM): 72.4%
- viability, T/C (second compound 10 µM, first compound 0.00316 µM): 55.7%
- viability, T/C (second compound 10 µM, first compound 0.01 µM): 57.5%
- viability, T/C (second compound 10 µM, first compound 0.0316 µM): 51.9%
- viability, T/C (second compound 10 µM, first compound 0.1 µM): 49.7%

SMILES: CC(=O)Nc1cccc(-n2c(=O)n(C3CC3)c(=O)c3c(Nc4ccc(I)cc4F)n(C)c(=O)c(C)c32)c1
- viability, T/C (compound 0.0001 µM): 77.7% [middle of 5 runs]
- viability, T/C (compound 0.000316 µM): 47.2% [middle of 5 runs]
- viability, T/C (compound 0.001 µM): 36.5% [middle of 5 runs]
- viability, T/C (compound 0.00316 µM): 29.1% [middle of 5 runs]
- viability, T/C (compound 0.01 µM): 24.1% [middle of 5 runs]
- viability, T/C (compound 0.0316 µM): 17.4% [middle of 4 runs]
- IC50 (curve of compound): 0.337 nM [middle of 5 runs]
